From ChEMBL document CHEMBL4043265, “Discovery of imidazo[1,2-a]-, [1,2,4]triazolo[4,3-a]-, and [1,2,4]triazolo[1,5-a]pyridine-8-carboxamide negative allosteric modulators of metabotropic glutamate receptor subtype 5” (Bioorg Med Chem Lett, 2017)
The source made the active and inactive calls. The rule behind the calls is not given here.

Legend:
[1] = target: Metabotropic glutamate receptor 5 (Rattus norvegicus, UniProt P31424); assay: Negative allosteric modulation of rat mGlu5 receptor expressed in HEK293 cells assessed as inhibition of glutamate induced-calcium mobilization preincubated for 2.3 mins followed by glutamate addition measured after 1.7 mins by Fluo-4 AM dye based fluorescence assay; assay type: functional, cell-based
Chain of Metabotropic glutamate receptor 5 (P31424 whole entry): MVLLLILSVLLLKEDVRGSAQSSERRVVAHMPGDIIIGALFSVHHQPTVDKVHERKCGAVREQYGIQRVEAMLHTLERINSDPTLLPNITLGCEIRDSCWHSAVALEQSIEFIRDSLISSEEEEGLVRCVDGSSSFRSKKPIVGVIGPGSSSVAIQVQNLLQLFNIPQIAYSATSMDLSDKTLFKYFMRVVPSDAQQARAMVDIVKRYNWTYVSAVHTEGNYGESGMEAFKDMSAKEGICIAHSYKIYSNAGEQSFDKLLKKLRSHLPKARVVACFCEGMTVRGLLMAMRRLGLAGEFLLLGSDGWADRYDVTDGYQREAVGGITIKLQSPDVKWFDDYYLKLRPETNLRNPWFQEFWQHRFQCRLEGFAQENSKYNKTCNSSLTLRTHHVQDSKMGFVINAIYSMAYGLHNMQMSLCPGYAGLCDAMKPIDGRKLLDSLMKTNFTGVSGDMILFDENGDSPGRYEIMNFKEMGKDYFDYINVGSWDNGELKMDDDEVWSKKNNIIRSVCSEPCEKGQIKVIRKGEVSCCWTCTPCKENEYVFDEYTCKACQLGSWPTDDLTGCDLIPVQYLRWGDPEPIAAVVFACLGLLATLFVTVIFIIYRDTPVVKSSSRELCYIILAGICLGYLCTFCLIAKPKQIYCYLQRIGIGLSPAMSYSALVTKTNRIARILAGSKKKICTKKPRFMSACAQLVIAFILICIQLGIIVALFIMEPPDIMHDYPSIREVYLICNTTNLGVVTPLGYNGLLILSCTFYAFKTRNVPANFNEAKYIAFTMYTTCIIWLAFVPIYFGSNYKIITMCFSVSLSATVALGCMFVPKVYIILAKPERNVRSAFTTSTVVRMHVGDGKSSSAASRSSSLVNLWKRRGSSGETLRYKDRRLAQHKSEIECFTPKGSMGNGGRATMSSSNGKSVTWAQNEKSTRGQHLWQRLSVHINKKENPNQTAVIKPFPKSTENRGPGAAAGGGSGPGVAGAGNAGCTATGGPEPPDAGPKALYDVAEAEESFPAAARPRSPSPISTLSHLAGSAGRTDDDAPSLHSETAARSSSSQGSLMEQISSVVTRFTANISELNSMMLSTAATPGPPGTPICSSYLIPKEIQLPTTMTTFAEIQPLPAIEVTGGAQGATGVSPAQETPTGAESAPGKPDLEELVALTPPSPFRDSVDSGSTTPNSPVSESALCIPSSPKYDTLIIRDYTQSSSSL

[2] = target: Metabotropic glutamate receptor 5 (Rattus norvegicus) (UniProt P31424); assay: Negative allosteric modulation of rat mGlu5 receptor expressed in HEK293 cells assessed as inhibition of glutamate induced-calcium mobilization at 30 uM preincubated for 2.3 mins followed by glutamate addition measured after 1.7 mins by Fluo-4 AM dye based fluorescence assay relative to glutamate; assay type: functional, cell-based
Chain of Metabotropic glutamate receptor 5 (Rattus norvegicus) (P31424 21-1203 limits assumed): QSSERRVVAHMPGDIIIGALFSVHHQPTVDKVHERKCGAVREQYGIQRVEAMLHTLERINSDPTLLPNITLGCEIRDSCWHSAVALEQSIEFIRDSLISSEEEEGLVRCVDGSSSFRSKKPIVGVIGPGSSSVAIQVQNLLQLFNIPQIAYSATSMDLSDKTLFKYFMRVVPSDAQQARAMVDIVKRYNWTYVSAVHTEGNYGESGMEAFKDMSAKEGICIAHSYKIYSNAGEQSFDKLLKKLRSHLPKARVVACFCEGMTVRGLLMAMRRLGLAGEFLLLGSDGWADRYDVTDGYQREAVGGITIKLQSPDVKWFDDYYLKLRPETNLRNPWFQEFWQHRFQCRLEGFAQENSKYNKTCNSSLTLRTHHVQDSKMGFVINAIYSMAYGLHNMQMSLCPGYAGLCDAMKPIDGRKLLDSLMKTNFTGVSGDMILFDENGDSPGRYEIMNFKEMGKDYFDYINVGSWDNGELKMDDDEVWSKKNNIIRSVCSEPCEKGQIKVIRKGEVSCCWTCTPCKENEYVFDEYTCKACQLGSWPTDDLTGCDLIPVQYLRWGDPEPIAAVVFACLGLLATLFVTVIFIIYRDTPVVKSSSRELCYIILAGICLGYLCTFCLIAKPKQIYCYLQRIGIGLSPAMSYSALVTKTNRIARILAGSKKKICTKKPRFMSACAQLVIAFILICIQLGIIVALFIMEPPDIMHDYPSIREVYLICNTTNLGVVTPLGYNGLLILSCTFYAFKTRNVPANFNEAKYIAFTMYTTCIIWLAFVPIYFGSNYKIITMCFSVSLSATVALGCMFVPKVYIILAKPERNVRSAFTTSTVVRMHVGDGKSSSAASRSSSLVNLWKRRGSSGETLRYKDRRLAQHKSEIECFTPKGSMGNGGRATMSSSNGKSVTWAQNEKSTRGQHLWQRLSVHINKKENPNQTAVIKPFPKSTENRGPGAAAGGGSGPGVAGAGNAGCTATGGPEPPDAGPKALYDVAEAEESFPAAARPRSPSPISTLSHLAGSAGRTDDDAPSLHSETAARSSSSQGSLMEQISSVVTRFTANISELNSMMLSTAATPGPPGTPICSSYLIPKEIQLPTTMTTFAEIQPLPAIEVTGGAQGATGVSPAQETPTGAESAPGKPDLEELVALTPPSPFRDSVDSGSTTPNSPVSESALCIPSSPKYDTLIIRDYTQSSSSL

[3] = target: T1, Cytochrome P450 1A2 (Homo sapiens, UniProt P05177)
T1 sequence (P05177 whole entry): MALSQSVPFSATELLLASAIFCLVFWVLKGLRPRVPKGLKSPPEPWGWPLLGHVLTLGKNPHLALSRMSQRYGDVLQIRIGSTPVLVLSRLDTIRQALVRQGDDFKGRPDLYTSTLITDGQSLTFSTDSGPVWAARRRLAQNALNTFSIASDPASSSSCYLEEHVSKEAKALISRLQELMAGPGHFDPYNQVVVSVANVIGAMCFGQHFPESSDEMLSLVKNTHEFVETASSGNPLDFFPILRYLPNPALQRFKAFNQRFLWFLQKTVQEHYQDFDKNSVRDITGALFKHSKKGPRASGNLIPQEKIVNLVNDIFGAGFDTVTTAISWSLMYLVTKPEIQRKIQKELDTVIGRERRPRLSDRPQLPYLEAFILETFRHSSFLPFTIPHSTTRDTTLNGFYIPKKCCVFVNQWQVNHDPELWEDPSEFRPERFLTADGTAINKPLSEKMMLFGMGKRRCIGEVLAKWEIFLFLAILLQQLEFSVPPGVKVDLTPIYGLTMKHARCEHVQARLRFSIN

[4] = target: Cytochrome P450 2C9 (Homo sapiens, UniProt P11712)
Chain of Cytochrome P450 2C9 (P11712 whole entry): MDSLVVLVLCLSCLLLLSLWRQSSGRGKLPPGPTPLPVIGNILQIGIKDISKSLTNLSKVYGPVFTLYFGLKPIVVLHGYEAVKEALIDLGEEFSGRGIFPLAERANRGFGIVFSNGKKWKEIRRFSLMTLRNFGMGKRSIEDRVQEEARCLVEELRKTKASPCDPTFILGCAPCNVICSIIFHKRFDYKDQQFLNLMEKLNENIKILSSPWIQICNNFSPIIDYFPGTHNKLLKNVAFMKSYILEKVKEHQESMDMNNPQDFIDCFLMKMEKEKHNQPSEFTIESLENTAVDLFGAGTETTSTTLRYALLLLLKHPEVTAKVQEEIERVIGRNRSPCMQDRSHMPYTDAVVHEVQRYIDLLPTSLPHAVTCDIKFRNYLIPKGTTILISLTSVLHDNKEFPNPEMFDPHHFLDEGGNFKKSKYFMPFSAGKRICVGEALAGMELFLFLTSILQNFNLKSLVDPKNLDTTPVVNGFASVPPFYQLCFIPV

[5] = target: Cytochrome P450 2D6 (Homo sapiens, UniProt P10635)
Chain of Cytochrome P450 2D6 (P10635 whole entry): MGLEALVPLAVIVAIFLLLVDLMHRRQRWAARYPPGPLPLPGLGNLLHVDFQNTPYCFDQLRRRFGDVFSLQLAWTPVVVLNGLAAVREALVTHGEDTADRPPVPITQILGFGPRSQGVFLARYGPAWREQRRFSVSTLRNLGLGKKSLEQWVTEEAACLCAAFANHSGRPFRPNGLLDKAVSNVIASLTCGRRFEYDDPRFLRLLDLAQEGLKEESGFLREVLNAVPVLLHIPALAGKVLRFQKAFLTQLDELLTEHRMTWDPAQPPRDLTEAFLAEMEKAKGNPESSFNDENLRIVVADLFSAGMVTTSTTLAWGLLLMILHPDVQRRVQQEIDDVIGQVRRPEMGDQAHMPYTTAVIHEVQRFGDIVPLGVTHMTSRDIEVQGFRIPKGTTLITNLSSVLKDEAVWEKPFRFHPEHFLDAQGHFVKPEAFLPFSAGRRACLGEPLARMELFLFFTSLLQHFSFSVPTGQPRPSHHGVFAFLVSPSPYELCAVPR

[6] = target: Cytochrome P450 3A4 (Homo sapiens, UniProt P08684)
Chain of Cytochrome P450 3A4 (P08684 whole entry): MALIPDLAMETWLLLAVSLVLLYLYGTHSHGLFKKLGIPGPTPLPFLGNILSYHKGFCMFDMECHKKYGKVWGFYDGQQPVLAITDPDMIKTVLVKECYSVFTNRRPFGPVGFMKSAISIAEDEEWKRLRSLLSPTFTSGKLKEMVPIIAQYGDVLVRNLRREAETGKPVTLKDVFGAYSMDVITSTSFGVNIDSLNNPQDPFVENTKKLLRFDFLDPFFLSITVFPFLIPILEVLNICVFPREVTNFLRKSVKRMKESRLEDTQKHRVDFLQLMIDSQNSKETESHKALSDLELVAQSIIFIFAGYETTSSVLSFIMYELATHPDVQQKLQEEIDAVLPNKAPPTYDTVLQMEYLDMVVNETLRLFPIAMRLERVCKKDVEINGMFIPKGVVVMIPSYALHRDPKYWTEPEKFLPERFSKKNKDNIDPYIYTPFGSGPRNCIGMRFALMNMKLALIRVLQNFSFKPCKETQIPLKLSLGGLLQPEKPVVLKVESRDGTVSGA

[7] = test system: Plasma; settings: rat, 4 h, 5 µM
[8] = test system: Plasma; settings: human, 4 h, 5 µM
[9] = test system: Mus musculus; assay: Anxiolytic-like activity in Harlan CD-1 mouse marble burying model of OCD assessed as suppression of marble burying activity at 10 mg/kg, ip administered 15 mins prior to test measured over 30 mins; assay type: functional, organism-based
[10] = target: T2, DAT (sodium-dependent dopamine transporter) (Homo sapiens, UniProt Q01959); assay: in vitro
T2 sequence (Q01959 whole entry): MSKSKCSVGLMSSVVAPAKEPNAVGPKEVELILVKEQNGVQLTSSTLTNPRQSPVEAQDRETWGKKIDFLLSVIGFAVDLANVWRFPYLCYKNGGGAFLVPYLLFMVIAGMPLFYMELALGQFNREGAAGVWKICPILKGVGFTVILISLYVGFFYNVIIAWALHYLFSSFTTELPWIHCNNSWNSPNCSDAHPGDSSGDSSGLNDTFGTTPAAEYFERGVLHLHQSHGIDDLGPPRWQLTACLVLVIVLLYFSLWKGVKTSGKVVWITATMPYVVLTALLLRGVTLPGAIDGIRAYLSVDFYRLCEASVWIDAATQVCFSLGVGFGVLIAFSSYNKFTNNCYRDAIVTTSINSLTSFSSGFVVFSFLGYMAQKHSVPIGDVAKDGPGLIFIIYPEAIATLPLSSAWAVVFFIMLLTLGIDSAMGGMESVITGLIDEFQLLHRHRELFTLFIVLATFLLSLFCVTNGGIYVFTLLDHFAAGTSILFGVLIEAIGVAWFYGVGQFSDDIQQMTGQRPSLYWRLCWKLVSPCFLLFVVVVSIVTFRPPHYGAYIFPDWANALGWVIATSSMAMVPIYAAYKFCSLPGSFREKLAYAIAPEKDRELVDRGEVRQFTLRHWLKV

[11] = Cmax in rat at 10 mg/kg, po; assay type: ADME, organism-based; parameters: dose 10 mg/kg, route oral; settings: in vivo
[12] = AUC in rat at 10 mg/kg, po; assay type: ADME, organism-based; settings: in vivo
[13] = Tmax in rat at 10 mg/kg, po; assay type: ADME, organism-based; settings: in vivo
[14] = Plasma clearance in rat at 1 mg/kg, iv; assay type: ADME, organism-based
[15] = Volume of distribution at steady state in rat at 1 mg/kg, iv; assay type: ADME, organism-based; settings: in vivo, read-out: Vdss
[16] = Mean residence time in rat at 1 mg/kg, iv; assay type: ADME, organism-based; settings: in vivo
[17] = Half life in rat at 1 mg/kg, iv; assay type: ADME, organism-based; settings: in vivo
[18] = Brain to plasma partition coefficient, Kp of the compound in rat at 3 mg/kg, po; assay type: ADME, organism-based
[19] = Ratio of unbound brain to plasma concentration in rat at 3 mg/kg, po; assay type: ADME, organism-based
[20] = Apparent permeability of the compound across apical side to basolateral side in MDCK cells expressing MDR1 measured every 30 mins for 2 hrs; assay type: ADME, cell-based, Canis lupus familiaris; settings: dog
[21] = Apparent permeability of the compound across basolateral side to apical side in MDCK cells expressing MDR1 measured every 30 mins for 2 hrs; assay type: ADME, cell-based, Canis lupus familiaris; settings: dog
[22] = test system: Brain; assay: Fraction unbound in rat brain homogenates at 5 uM after 6 hrs by equilibrium dialysis method; assay type: ADME, tissue-based; settings: brain homogenate
[23] = Oral bioavailability in rat at 10 mg/kg; assay type: ADME, organism-based; settings: in vivo
[24] = test system: Mus musculus; assay: Anxiolytic-like activity in ip dosed Harlan CD-1 mouse marble burying model of OCD assessed as suppression of marble burying activity administered 15 mins prior to test measured over 30 mins; assay type: functional; settings: Harlan CD-1, ip, read-out: MED
[25] = target: Sodium-dependent dopamine transporter (Homo sapiens, UniProt Q01959); assay type: ADME, cell-based
Chain of Sodium-dependent dopamine transporter (Q01959 whole entry): as above

[26] = target: T2, DAT (sodium-dependent dopamine transporter); assay: Inhibition of full-length recombinant human DAT expressed in CHOK1 cells assessed as reduction in [3H]dopamine uptake at 10 uM pretreated for 20 mins followed by [3H]dopamine addition measured after 10 mins by scintillation counting method relative to control; assay type: cell-based; settings: CHO-K1 cells expressing full-length recombinant human DAT, probe [3H]dopamine
[27] = target: Platelet-activating factor receptor (Homo sapiens) (UniProt P25105); assay: Displacement of [3H]PAF from human PAF at 10 uM after 3 hrs by scintillation counting method relative to control
Chain of Platelet-activating factor receptor (Homo sapiens) (P25105 whole entry): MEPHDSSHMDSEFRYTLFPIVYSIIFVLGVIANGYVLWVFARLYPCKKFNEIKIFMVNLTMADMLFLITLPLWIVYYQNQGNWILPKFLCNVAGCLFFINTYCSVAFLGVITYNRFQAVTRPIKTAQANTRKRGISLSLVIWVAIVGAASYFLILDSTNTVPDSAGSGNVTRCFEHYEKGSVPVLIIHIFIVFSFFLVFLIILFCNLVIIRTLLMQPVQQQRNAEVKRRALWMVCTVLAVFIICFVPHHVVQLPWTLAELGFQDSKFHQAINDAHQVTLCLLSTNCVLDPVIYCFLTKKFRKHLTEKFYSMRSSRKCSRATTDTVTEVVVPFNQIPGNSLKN

[28] = CHO-K1 cells expressing recombinant human DAT, probe [125I]RTI-55

SMILES | IC50 [1] | %max [2] | IC50 [3] | IC50 [4] | IC50 [5] | IC50 [6] | Fu [7] | Fu [8] | further results
O=C(Nc1cccc(F)n1)c1cc(Oc2cncc(F)c2)cn2ccnc12 | 38 nM | 1.5% | 0.6 µM | 1.6 µM | 24.8 µM | 2.3 µM | 0.023 | 0.026 | 
Cc1cc(Oc2cncnc2)cc(C(=O)Nc2ccc(F)cn2)n1 |  |  |  |  |  |  |  |  | Activity [9]: Active
O=C(Nc1ccc(F)cn1)c1cc(Oc2cncc(OC(F)F)c2)cn2ncnc12 | 129 nM | 1.7% |  |  |  |  |  |  | 
O=C(Nc1ccc(F)cn1)c1cc(Oc2cncc(F)c2F)cn2ncnc12 | 41 nM | 2% | 4.1 µM | > 30 µM | > 30 µM | > 30 µM | 0.066 | 0.067 | inhibition at 3 h, 10 µM [10, 28]: 87%
O=C(Nc1ccc(F)cn1)c1cc(Oc2cc(F)cnc2F)cn2ncnc12 | 117 nM | 2.2% |  |  |  |  |  |  | 
O=C(Nc1ccc(F)cn1)c1cc(Oc2cncnc2)cn2cnnc12 | 324 nM | 1.6% |  |  |  |  |  |  | 
O=C(Nc1ccc(F)cn1)c1cc(Oc2cnc(F)c(F)c2)cn2ncnc12 | 56 nM | 1.6% | > 30 µM | > 30 µM | > 30 µM | 23 µM | 0.023 | 0.031 | IC50 [25]: 2870 nM; inhibition at 3 h, 10 µM [10]: 67%
COc1ccc(NC(=O)c2cc(Oc3cncc(F)c3)cn3ccnc23)nc1 | 55 nM | 1.6% | 1.1 µM | 5.7 µM | > 30 µM | 2 µM | 0.014 | 0.028 | 
O=C(Nc1ccc(F)cn1)c1cc(Oc2cncnc2)cn2ncnc12 | 74 nM | 1.5% | 9.9 µM | > 30 µM | > 30 µM | > 30 µM | 0.168 | 0.313 | IC50 [25]: > 10000 nM; inhibition at 10 min, 10 µM [26]: 42%; inhibition at 3 h, 10 µM [10, 28]: 60%

Further lines, with some results ahead:

IC50 [1] | %max [2] | IC50 [3] | IC50 [4] | IC50 [5] | IC50 [6] | Fu [7] | Fu [8] | SMILES | further results
27 nM | 2.3% | 4.3 µM | > 30 µM | > 30 µM | 17.8 µM | 0.051 | 0.1 | O=C(Nc1ccc(F)cn1)c1cc(Oc2cncc(F)c2)cn2cnnc12 | Cmax [11]: 573 nM; AUC [12]: 5.67 µM·h; Tmax [13]: 3 h; clearance [14]: 14 mL/min/kg; Vd [15]: 1.6 L/kg; MRT [16]: 1.97 h; half-life [17]: 79 min; Kp [18]: 1.7; K(p,uu,brain) [19]: 2.1; Papp [20]: 4.7 ×10⁻⁶ cm/s; Papp [21]: 11.1 ×10⁻⁶ cm/s; Fu [22]: 0.065; bioavailability [23]: 17%; minimal effective dose [24]: 3 mg/kg; inhibition at 3 h, 10 µM [10, 28]: 91%
1410 nM | 3.3% |  |  |  |  |  |  | Cc1nc2c(C(=O)Nc3ccc(F)cn3)cc(Oc3cncc(F)c3)cn2n1 | 
372 nM | 2.7% |  |  |  |  |  |  | Cc1nnc2c(C(=O)Nc3ccc(F)cn3)cc(Oc3cncc(F)c3)cn12 | 
74 nM | 1.4% | 0.8 µM | 6.9 µM | > 30 µM | 1.9 µM | 0.005 | 0.016 | Cc1ccc(NC(=O)c2cc(Oc3cncc(F)c3)cn3ccnc23)nc1 | 
89 nM | 1.1% |  |  |  |  |  |  | O=C(Nc1ccc(F)cn1)c1cc(Oc2cncc(Cl)c2)cn2ncnc12 | 
20 nM | 1.6% | 0.8 µM | 5.7 µM | > 30 µM | 3.9 µM | 0.028 | 0.02 | O=C(Nc1ccc(F)cn1)c1cc(Oc2cncc(F)c2)cn2ccnc12 | 
20 nM | 1.5% | 15.1 µM | > 30 µM | > 30 µM | > 30 µM | 0.066 | 0.071 | O=C(Nc1ccc(F)cn1)c1cc(Oc2cncc(F)c2)cn2ncnc12 | Cmax [11]: 673 nM; AUC [12]: 8.3 µM·h; Tmax [13]: 3 h; clearance [14]: 11 mL/min/kg; Vd [15]: 1.6 L/kg; MRT [16]: 2.38 h; half-life [17]: 81 min; Kp [18]: 1.4; K(p,uu,brain) [19]: 0.6; Papp [20]: 10 ×10⁻⁶ cm/s; Papp [21]: 13.1 ×10⁻⁶ cm/s; Fu [22]: 0.028; bioavailability [23]: 20%; minimal effective dose [24]: 3 mg/kg; inhibition [27]: 55%; IC50 [25]: 730 nM; inhibition at 3 h, 10 µM [10, 28]: 89%
